In paper PMC9849758, “Chemically diverse activity-based probes with unexpected inhibitory mechanisms targeting trypsin-like serine proteases” (Frontiers in Chemistry, 2023):
Counter-ions that a name gives are not always drawn.

How the values were obtained:
Assay type in all cases: biochemical
Thrombin = biological target: T1, Thrombin (Homo sapiens, UniProt P00734); test: Jump dilution, determination of inhibition type; conditions: inhibitor at 10 times IC50, 15 min, diluted 10-fold or 100-fold; Rev./Irrev.
T1 construct: purchased R&D
Protocol: (§1) The dissociation of the enzyme-inhibitor complex was monitored by substrate hydrolysis over time ([Joossens et al., 2006]).
(§2) Because ABPs are designed to be irreversible serine protease inhibitors, the IC50 is exclusively used as a first discriminatory evaluation. When an inhibitor is irreversible, its IC50 value not only depends on the substrate and enzyme concentration but also on the time of incubation with the enzyme before the reaction is started by adding the substrate. […] The progress curve in the presence of an irreversible inhibitor will show final velocities equal to zero (Figure 6C). In contrast, for a reversible inhibitor, progress curves have a non-zero final steady-state velocity (Figure 6A) ([McWhirter, 2021]). To corroborate the inhibitory mechanism of the compounds, jump-dilution assays were performed. These use an inhibitor concentration of 10-fold the IC50 for the incubation, and a posteriori, the reaction mixture is diluted 10-fold or 100-fold before adding the substrate. In the case of an irreversible inhibitor, enzymatic activity is not regained (Figure 6D), whereas, in the case of a reversible compound, a slow release of the inhibitor and a gradual increase of the enzymatic activity rate is observed (Figure 6B) ([Copeland, 2013]; [McWhirter, 2021]). The jump-dilution assays confirmed the behavior described by the progress curves.
(§3) 2.2.2 Jump dilution results
(§4) Supplementary Table 2. Jump dilution of selected alkyne and desthiobiotin probes against a panel of trypsin-like serine proteases. […]
(§5) # R R DtBa 3 tryptase Thrombin uPA CatG
(§6) 32b H Alk Irrev. Irrev. Rev. Irrev. Rev.
(§7) 45b DtB Irrev. Irrev. Rev. N.D. N.D.
(§8) 33b Alk Irrev. Irrev. Rev. Irrev. Rev.
(§9) 46b Cl DtB Irrev. Irrev. Rev. N.D. N.D.
(§10) 34b H Alk Rev. Rev. Rev. Irrev. Rev.
(§11) 50b DtB Rev. Rev. Rev. Irrev. Rev.
(§12) 35b Alk Rev. Rev. Rev. Irrev. Rev.
(§13) 52b NHCOMe DtB Rev. Rev. Rev. Irrev. Rev.
(§14) 36b Alk Rev. Rev. Rev. Irrev. Rev.
(§15) 54b Cl DtB Rev. Rev. Rev. Irrev. Rev.
(§16) 37b Alk Irrev. Irrev. N.D. Irrev. Irrev.
(§17) 55b H DtB Irrev. Irrev. N.D. Irrev. Irrev.
(§18) 38b Alk Irrev. Irrev. N.D. Irrev. Irrev.
(§19) 56b NHCOMe DtB Irrev. Irrev. N.D. Irrev. Irrev.
(§20) 39b Alk Irrev. Irrev. N.D. Irrev. Rev.
(§21) 57b Cl DtB Irrev. Irrev. N.D. Irrev. Rev.
(§22) 41b H Alk Irrev. Irrev. Irrev. N.D. N.D.
(§23) 31b Pro-Lys H Alk Irrev. Irrev. Irrev. Irrev. N.D. a Alk: ABP precursor bearing an alkyne; DtB: desthiobiotin probe b Panel of serine proteases abbreviations: urokinase plasminogen activator (uPA), cathepsin G (catG) N.D.: IC50 is greater than 10µM, and jump dilution was not performed
(§24) 2.2.3 Progress curves and Jump dilution experiments
(§25) Kinetic assays were performed in the following manner. The inhibitor was mixed with the substrate, and the buffer solution with the enzyme was added at the time zero. The progress curves show the release of para-nitroaniline (pNA) or 7-amino-4-methyl coumarin (AMC) as a function of time.
(§26) To monitor the dissociation of the inhibitor-enzyme, aliquots of the enzyme were incubated at 37 °C without and with the inhibitor at a concentration 10 times higher than its IC 50. The enzyme […]
(§27) min, the aliquots were diluted 10-fold or 100-fold into the substrate concentration and assay buffer used for the IC50 determination. The dissociation of the enzyme-inhibitor complex was monitored by substrate hydrolysis over time. Blue lines represent the control where no inhibitor was present. Pink lines represent the assay with inhibitor.

CatG = biological target: T2, CatG (Homo sapiens, UniProt P08311); test: Jump dilution, determination of inhibition type; design: Cathepsin G (cathepsin G human neutrophil, Sigma-Aldrich); purchased Sigma-Aldrich; conditions: inhibitor at 10 times IC50, 15 min, diluted 10-fold or 100-fold; Rev./Irrev.
T2 sequence (P08311 21-255): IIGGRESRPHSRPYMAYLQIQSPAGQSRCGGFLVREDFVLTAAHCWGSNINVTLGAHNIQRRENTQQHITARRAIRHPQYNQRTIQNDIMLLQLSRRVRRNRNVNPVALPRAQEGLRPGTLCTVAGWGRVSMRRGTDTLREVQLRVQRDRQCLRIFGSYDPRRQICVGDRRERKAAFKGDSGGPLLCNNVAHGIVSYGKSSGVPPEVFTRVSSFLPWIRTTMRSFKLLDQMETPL
Protocol: as §1, §2, §3, §4, §5, §6, §7, §8, §9, §10, §11, §12, §13, §14, §15, §16, §17, §18, §19, §20, §21, §22, §23, §24, §25, §26, §27

[1] = biological target: T3, Neutrophil Elastase (recombinant neutrophil elastase) (Homo sapiens, UniProt P08246); test: IC50 determination, spectrophotometric protease assay
T3 construct: purchased Enzo LifeSciences
T3 sequence (P08246 30-267): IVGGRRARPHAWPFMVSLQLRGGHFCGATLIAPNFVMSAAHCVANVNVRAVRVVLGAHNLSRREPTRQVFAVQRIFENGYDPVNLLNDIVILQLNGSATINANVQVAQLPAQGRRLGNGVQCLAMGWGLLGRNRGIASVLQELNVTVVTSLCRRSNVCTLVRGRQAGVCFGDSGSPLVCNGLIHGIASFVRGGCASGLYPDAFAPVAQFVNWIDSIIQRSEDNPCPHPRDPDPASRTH
Outline: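 Enzymatic cleavage, with substrate at the Km, was recorded for 30 min at 37°C via chromogenic pNA or fluorogenic AMC release. A third experiment was added when SD exceeded three times the IC50.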

Row | Structure (SMILES) | Thrombin jump dilution result (Thrombin) | CatG jump dilution result (CatG) | IC50 [1]
1 | C[C@@H]1NC(=O)N[C@@H]1CCCCCC(=O)NCCOCCOCCOCCn1cc(CCCOC(=O)NC(CCCNC(=N)N)P(=O)(Oc2ccccc2)Oc2ccccc2)nn1 (stereo partly shown) [45b] | Rev. |  | 
2 | CC(=O)Nc1ccc(OP(=O)(Oc2ccc(NC(C)=O)cc2)C(NC(=O)OCCCc2cn(CCOCCOCCOCCNC(=O)CCCCC[C@H]3NC(=O)N[C@H]3C)nn2)c2ccc(NC(=N)N)cc2)cc1 (stereo partly shown) [56b] |  | Irrev. | 
3 | C#CCCCOC(=O)NC(c1ccc(NC(=N)N)cc1)P(=O)(Oc1ccc(NC(C)=O)cc1)Oc1ccc(NC(C)=O)cc1 (stereo not shown) [38b, Pent-4-yn-1-yl ((bis(4-acetamidophenoxy)phosphoryl)(4-guanidinophenyl)methyl) carbamate] |  | Irrev. | 
4 | C[C@@H]1NC(=O)N[C@@H]1CCCCCC(=O)NCCOCCOCCOCCn1cc(CCCOC(=O)NC(c2ccc(NC(=N)N)cc2)P(=O)(Oc2ccc(Cl)cc2)Oc2ccc(Cl)cc2)nn1 (stereo partly shown) [57b] |  | Rev. | 
5 | C[C@@H]1NC(=O)N[C@@H]1CCCCCC(=O)NCCOCCOCCOCCn1cc(CCCOC(=O)NC(Cc2ccc(NC(=N)N)cc2)P(=O)(Oc2ccccc2)Oc2ccccc2)nn1 (stereo partly drawn) [50b, 3-(1-(18-((4R,5S)-5-methyl-2-oxoimidazolidin-4-yl)-13-oxo-3,6,9-trioxa-12-azaoctadecyl)-1H-1,2,3-triazol-4-yl)propyl (1-(diphenoxyphosphoryl)-2-(4-guanidinophenyl)ethyl)carbamate trifluoroacetate salt] | Rev. | Rev. | > 10 µM
6 | C[C@@H]1NC(=O)N[C@@H]1CCCCCC(=O)NCCOCCOCCOCCn1cc(CCCOC(=O)NC(CCCNC(=N)N)P(=O)(Oc2ccc(Cl)cc2)Oc2ccc(Cl)cc2)nn1 (stereo partly shown) [46b] | Rev. |  | 
7 | C[C@@H]1NC(=O)N[C@@H]1CCCCCC(=O)NCCOCCOCCOCCn1cc(CCCOC(=O)NC(Cc2ccc(NC(=N)N)cc2)P(=O)(Oc2ccc(Cl)cc2)Oc2ccc(Cl)cc2)nn1 (stereo partly shown) [54b] | Rev. | Rev. | > 10 µM
8 | C#CCCCOC(=O)NC(Cc1ccc(NC(=N)N)cc1)P(=O)(Oc1ccc(Cl)cc1)Oc1ccc(Cl)cc1 (stereo not shown) [36b] | Rev. | Rev. | > 10 µM
9 | C#CCCCOC(=O)NC(CCCNC(=N)N)P(=O)(Oc1ccccc1)Oc1ccccc1 (stereo not shown) [32b] | Rev. | Rev. | > 10 µM
10 | C#CCCCOC(=O)NC(Cc1ccc(NC(=N)N)cc1)P(=O)(Oc1ccc(NC(C)=O)cc1)Oc1ccc(NC(C)=O)cc1 (stereo not shown) [35b] | Rev. | Rev. | > 10 µM
11 | C#CCCCOC(=O)NC(CCCNC(=N)N)P(=O)(Oc1ccc(Cl)cc1)Oc1ccc(Cl)cc1 (stereo not shown) [33b] | Rev. | Rev. | 
12 | C#CCCCOC(=O)NC(C1CCN(C(=N)N)CC1)P(=O)(Oc1ccccc1)Oc1ccccc1 (stereo not shown) [41b] | Irrev. |  | > 10 µM
13 | C#CCCCOC(=O)NC(c1ccc(NC(=N)N)cc1)P(=O)(Oc1ccc(Cl)cc1)Oc1ccc(Cl)cc1 (stereo not shown) [39b, Pent-4-yn-1-yl ((bis(4-chlorophenoxy)phosphoryl)(4-guanidinophenyl)methyl)carbamate] |  | Rev. | 
14 | C#CCCCOC(=O)NC(Cc1ccc(NC(=N)N)cc1)P(=O)(Oc1ccccc1)Oc1ccccc1 (stereo not shown) [34b] | Rev. | Rev. | > 10 µM
15 | CC(=O)Nc1ccc(OP(=O)(Oc2ccc(NC(C)=O)cc2)C(Cc2ccc(NC(=N)N)cc2)NC(=O)OCCCc2cn(CCOCCOCCOCCNC(=O)CCCCC[C@H]3NC(=O)N[C@H]3C)nn2)cc1 (stereo partly shown) [52b] | Rev. | Rev. | > 10 µM
16 | C#CCCCOC(=O)NC(c1ccc(NC(=N)N)cc1)P(=O)(Oc1ccccc1)Oc1ccccc1.O=C(O)C(F)(F)F (stereo not shown) [37b, Pent-4-yn-1-yl ((diphenoxyphosphoryl)(4-guanidinophenyl)methyl)carbamate trifluoroacetate salt] |  | Irrev. | > 10 µM
17 | C[C@@H]1NC(=O)N[C@@H]1CCCCCC(=O)NCCOCCOCCOCCn1cc(CCCOC(=O)NC(c2ccc(NC(=N)N)cc2)P(=O)(Oc2ccccc2)Oc2ccccc2)nn1 (stereo partly shown) [55b] |  | Irrev. | 
